# Measurements reported in publication PMC4177951, “Identification and Functional Expression of a Glutamate- and Avermectin-Gated Chloride Channel from Caligus rogercresseyi, a Southern Hemisphere Sea Louse Affecting Farmed Fish” (PLoS Pathogens, 2014).
# Assays:
# CrGluClα = target: T1, CrGluClα (Caligus rogercresseyi, UniProt A0A1W6LZ70); assay: two-electrode voltage clamp in Xenopus oocytes expressing the channel; agonist concentration-response; assay type: cell-based
# T1 construct: full-length ORF (clones CrGluCl-Vald13 and CrGluCl-Vald2)
# T1 sequence (A0A1W6LZ70 entry or part of it): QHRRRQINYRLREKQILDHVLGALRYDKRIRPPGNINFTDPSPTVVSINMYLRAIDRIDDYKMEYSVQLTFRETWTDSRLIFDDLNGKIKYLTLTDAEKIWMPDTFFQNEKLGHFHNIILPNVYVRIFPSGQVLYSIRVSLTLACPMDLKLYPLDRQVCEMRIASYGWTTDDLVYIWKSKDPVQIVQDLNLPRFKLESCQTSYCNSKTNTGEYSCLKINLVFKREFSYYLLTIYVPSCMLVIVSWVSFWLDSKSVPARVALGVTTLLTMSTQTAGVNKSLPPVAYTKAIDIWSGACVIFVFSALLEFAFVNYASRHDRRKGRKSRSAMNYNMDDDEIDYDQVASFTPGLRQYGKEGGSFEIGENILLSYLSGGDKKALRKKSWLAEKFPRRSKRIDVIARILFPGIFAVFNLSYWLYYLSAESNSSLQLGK
# CrGluClα-T318A = target: T2, CrGluClα-T318A (Caligus rogercresseyi, UniProt A0A1W6LZ70, T318A); assay: two-electrode voltage clamp in Xenopus oocytes; concentration-response of small evoked currents (Figure 9D); assay type: cell-based
# T2 construct: full ORF in pCR3.1, homopentamer expressed in Xenopus laevis oocytes, T318A point mutant at extracellular end of M3
# T2 sequence (A0A1W6LZ70 33-463 T318A): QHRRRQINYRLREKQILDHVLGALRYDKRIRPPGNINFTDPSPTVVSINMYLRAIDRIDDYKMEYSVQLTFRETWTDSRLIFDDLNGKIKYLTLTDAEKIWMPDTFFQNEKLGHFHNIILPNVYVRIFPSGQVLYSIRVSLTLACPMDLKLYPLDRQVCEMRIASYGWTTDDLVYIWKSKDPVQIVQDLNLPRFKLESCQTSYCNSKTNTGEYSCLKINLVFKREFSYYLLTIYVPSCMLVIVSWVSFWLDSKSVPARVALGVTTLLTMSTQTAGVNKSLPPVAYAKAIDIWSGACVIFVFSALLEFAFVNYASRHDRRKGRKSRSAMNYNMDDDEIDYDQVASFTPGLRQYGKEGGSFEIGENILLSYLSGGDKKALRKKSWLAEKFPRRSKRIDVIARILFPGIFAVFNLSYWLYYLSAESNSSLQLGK
structure (smiles),measurement,setting,value
N[C@@H](CCC(=O)O)C(=O)O [L-glutamate],EC50,CrGluClα,6.89 ± 0.83 µM
same,concentration-response of evoked currents,CrGluClα-T318A,Maximal response was reached at lower glutamate concentrations in the CrGluClα-T318A mutant channel.
